pIC50: −log10 of the molar value. Where two headings read alike, the source gives them in different places.
What was measured:
Orai1/STIM1 = target: T1, Orai1/STIM1 (Homo sapiens, UniProt Q96D31); assay: Fluorescence-based assay of store-operated calcium entry in Orai1/STIM1 stable cells; assay type: cell-based; conditions: HEK-293 cells stably expressing human STIM1 and Orai1, 50% inhibition of Peak-Basal fluo-4 signal, read-out: Orai1/STIM1 (IC50, μmol)
T1 construct: expressed in transfected cells; host or cells: HEK-293
Experimental: A. Fluorescence-based Assay of Store-Operated Calcium Entry in Orai1/STIM1 Stable Cells.
Cells stably expressing recombinant human STIM1 and Orai1 are generated by transfecting a human Orai1 expression plasmid (pcDNA3.1-Orai1-cmyc) into HEK-293 cells stably overexpressing human STIM1 (Roos et al. 2005 JCB 169(3): 435-445). Colonies of cells stably expressing both STIM1 and Orai1 proteins are selected and then subcloned by limiting dilution. Cells were cultured at 37° C./6% CO2 in complete medium with 10% FBS and appropriate selection markers.
The day prior to performing the assay Orai1/STIM1 stable cells are plated in 50 μL of complete medium at 90-95% confluence in a 384 well plate. Cells are grown at 37° C./6% CO2 overnight. On the day of the assay, 1.5 μM fluo-4-AM (Invitrogen) in complete medium is added to the cells, which are then incubated for 1 hour at RT. Cells are washed once in Ca^2+-free HBSS (Hank's buffered saline solution) and 35 μl of Ca^2+-free HBSS is added to each well. Test compounds are added to wells in a 10 μL Ca^2+-free HBSS solution, prepared at 4.5× the desired final concentration, and incubated for 30 minutes at RT. The initial baseline fluorescence signal is then measured with a FLIPR^384 (Molecular Devices) plate reader. Calcium entry is initiated by adding 5 μl of 10× CaCl2 (10 mM) in HBSS, and changes in cellular fluorescence are measured with the FLIPR^384 plate reader. In each well, the magnitude of the fluorescence signal as a result of calcium entry into the cell is determined by calculating the difference between the peak fluorescence signal measured after calcium addition and the initial baseline fluorescence signal (designated Peak-Basal). IC50 values are typically calculated as the concentration that inhibited 50% of the Peak-Basal signal (Table A).

RBL-2H3 cells = assay: Fluorescence-based assay of store-operated calcium entry in RBL-2H3 cells; assay type: cell-based, rat; conditions: Rattus norvegicus, RBL-2H3, thapsigargin store depletion, 50% inhibition of Upslope, read-out: RBL-2H3 (IC50, μmol)
Experimental: B. Fluorescence-based Assay of Store-Operated Calcium Entry in RBL-2H3Cells.
RBL-2H3 cells are obtained from ATCC and maintained in complete medium with 10% FBS at 37° C./6% CO2.
The day prior to performing the assay, RBL-2H3 cells are plated in 50 μL of complete medium in a 384 well plate. Cells are grown at 37° C./6% CO2 overnight and grow to 50-60% confluence by the next day. On the assay day, 1.5 μM Fluo-4-AM dye (Invitrogen) in complete medium is added and incubated for 1 hour at RT. Cells are washed twice in Ca^2+-free HBSS buffer and 35 μL Ca^2+-free HBSS buffer is added to each well. 10 μL of a test compound prepared in a Ca^2+-free HBSS solution at 4.5× of the desired concentration is added to a well and incubated for 5 minutes at RT. 10 μL of thapsigargin prepared in a Ca^2+-free HBSS solution at 5.5× of the desired concentration (5.5 uM) is added to each well and incubated for an additional 25 minutes. The initial baseline fluorescence signal is measured with a FLIPR^384 (Molecular Devices) plate reader. 5 μL of 12× calcium in HBSS (12 mM) is added and changes in cellular fluorescence are measured with the FLIPR^384 plate reader. In each well, the change in the fluorescent signal as a function of time due to calcium entry into the cell is determined by calculating the difference between the fluorescent signal measured 7 seconds after calcium addition and the initial baseline fluorescence signal at time zero (t=0). This parameter is designated Upslope. The IC50 value is calculated as the concentration at which 50% of the Upslope is inhibited.

T1 sequence (Q96D31 whole entry): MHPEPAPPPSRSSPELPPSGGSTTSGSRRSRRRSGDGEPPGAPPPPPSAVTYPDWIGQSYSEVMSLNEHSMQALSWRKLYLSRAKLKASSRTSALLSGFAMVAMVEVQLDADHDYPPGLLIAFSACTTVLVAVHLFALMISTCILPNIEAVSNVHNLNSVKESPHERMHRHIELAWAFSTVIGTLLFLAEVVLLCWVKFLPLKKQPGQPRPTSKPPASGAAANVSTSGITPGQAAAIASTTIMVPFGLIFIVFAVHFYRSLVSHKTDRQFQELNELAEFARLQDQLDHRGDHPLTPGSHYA

| Structure (SMILES) | pIC50 (Orai1/STIM1; Table iv) | pIC50 (RBL-2H3 cells; Table iv) | pIC50 (Orai1/STIM1; Table iii) | pIC50 (RBL-2H3 cells; Table iii) |
| --- | --- | --- | --- | --- |
| Cc1cccc(F)c1C(=O)Nc1ccc(-c2nc(C(F)(F)F)sc2C)cc1 | > 6.22 | > 6.22 |  |  |
| Cc1nn(C(F)F)cc1-c1ccc(NCc2ccccc2F)cc1 |  |  | 5.92 to 6.22 | > 6.22 |
| Cc1cc(C(F)(F)F)nn1-c1ccc(NCc2c(F)cncc2F)cc1 |  |  | 5.92 to 6.22 | > 6.22 |
| CCn1nc(C(F)(F)F)cc1-c1ccc(NCc2c(F)cccc2F)cc1F |  |  | 5.92 to 6.22 | > 6.22 |
| Cc1cc(C(F)(F)F)nn1-c1ccc(NC(=O)c2ccccc2F)cc1 | > 6.22 | > 6.22 |  |  |
| O=C(Nc1ccc(-n2nc(C(F)(F)F)cc2C(F)(F)F)cc1)c1ccccc1F |  | > 6.22 |  |  |
| Cc1sc(C(F)(F)F)nc1-c1ccc(NCc2ccccc2F)cc1 |  |  | > 6.22 | > 6.22 |
| Cn1nc(C(F)(F)F)cc1-c1ccc(NC(=O)c2c(F)cc(F)cc2F)cc1F | > 6.22 | > 6.22 |  |  |
| Cc1nc(C(F)(F)F)cn1-c1ccc(NCc2c(F)cncc2F)cc1F |  |  | > 6.22 | > 6.22 |
| Cc1cc(F)ccc1C(=O)Nc1ccc(-c2cc(C(F)F)nn2C)c(F)c1 | > 6.22 | > 6.22 |  |  |
| Cn1nc(C(F)(F)F)cc1-c1ccc(NCc2ccc(F)cc2F)cc1 |  |  | > 6.22 | > 6.22 |
| CCn1nc(C(F)(F)F)cc1-c1ccc(NCc2c(F)cccc2F)cc1 |  |  | > 6.22 | > 6.22 |
| Cc1cc2c(cc1-c1ccc(NC(=O)c3c(C)cccc3F)cc1F)OC(F)(F)O2 | < 5.92 | > 6.22 |  |  |
| Cc1cc2c(cc1-c1ccc(NCc3ccncc3F)cc1)OC(F)(F)O2 |  |  | 5.92 to 6.22 | > 6.22 |
| Cc1cccc(F)c1C(=O)Nc1ccc(-c2cc(C(F)(F)F)nn2C)c(F)c1 | > 6.22 | > 6.22 |  |  |
| Cc1cc(C(F)(F)F)nn1-c1ccc(NC(=O)c2ccc(F)cc2F)cc1 | > 6.22 | > 6.22 |  |  |
| Cc1nn(C(F)F)cc1-c1ccc(NC(=O)c2c(F)cccc2F)cc1 | > 6.22 | > 6.22 |  |  |
| CCn1nc(C(F)(F)F)cc1-c1ccc(NC(=O)c2ccccc2F)cc1F | > 6.22 | > 6.22 |  |  |
| Cc1cc(F)ccc1CNc1ccc(-c2cc(C(F)(F)F)nn2C)c(F)c1 |  |  | > 6.22 | > 6.22 |
| Cc1sc(C(F)(F)F)nc1-c1ccc(NC(=O)c2c(F)cccc2F)cc1 | > 6.22 | > 6.22 |  |  |
| Cc1cc2c(cc1-c1ccc(NCc3snnc3F)cc1)OC(F)(F)O2 |  |  | 5.92 to 6.22 | > 6.22 |
| Cc1nn(C(F)F)cc1-c1ccc(NCc2ccccc2F)cc1F |  |  | > 6.22 | > 6.22 |
| Cc1ccccc1CNc1ccc(-c2cn(C(F)F)nc2C)c(F)c1 |  |  | 5.92 to 6.22 | > 6.22 |
| Cc1cc2c(cc1-c1ccc(NCc3c(F)cccc3F)cc1)OC(F)(F)O2 |  |  | < 5.92 | > 6.22 |
| Cc1nc(C(F)(F)F)cn1-c1ccc(NCc2c(F)cccc2F)cc1 |  |  | > 6.22 | > 6.22 |
| O=C(Nc1ccc(-n2nc(C(F)(F)F)cc2C(F)(F)F)cc1)c1ccncc1F | 5.92 to 6.22 | > 6.22 |  |  |
| CCn1nc(C(F)(F)F)cc1-c1ccc(NC(=O)c2ccccc2F)cc1 | > 6.22 | > 6.22 |  |  |
| Cc1ccccc1C(=O)Nc1ccc(-c2cn(C(F)F)nc2C)c(F)c1 | > 6.22 | 5.92 to 6.22 |  |  |
| Cc1cc2c(cc1-c1ccc(NCc3c(F)cncc3F)cc1)OC(F)(F)O2 |  |  | > 6.22 | > 6.22 |

— US20140256771A1, “COMPOUNDS THAT MODULATE INTRACELLULAR CALCIUM” (CalciMedica, Inc., priority 2011, published 2014)
